Data published in US10927141B2 (priority 2018, dated 2021).
Several values for one entry are separate records, joined by “and”; a condition that tells them apart may be missing. Identical values can stand only once. Like-named read-outs stand apart in the source and are kept apart here.

Experiments:
[1] = type: physicochemical; details: 1 w
Protocol: For each salt, approximately 5 mg compound was added into an 8 mL glass vial with a multi-hole aluminum foil cap, and kept at 60° C., 40° C./75% RH for 1 week. […] Appearance by visual observation were recorded followed by purity assessment and XPRD data collection on the residual solids.

[2] = type: physicochemical

| SMILES | Final purity ([1]; 40° C./75% RH) | XRPD patterns ([1]; 40° C./75% RH) | Final purity ([1]; 60° C.) | XRPD patterns ([1]; 60° C.) | Final purity ([2]; 1.2 million lux-hrs) | XRPD patterns ([2]; 1.2 million lux-hrs) | Final purity ([2]; Dark control) | XRPD patterns ([2]; Dark control) | XRPD pattern ([1]; 40° C./75% RH) | XRPD pattern ([1]; 60° C.) | XRPD pattern ([2]; 1.2 million lux-hrs) | XRPD pattern ([2]; Dark control) |
| --- | --- | --- | --- | --- | --- | --- | --- | --- | --- | --- | --- | --- |
| COCC1(O)CCC2(C)C(CCC3C2CCC2(C)C(C(=O)Cn4ccnc4)CCC32)C1.O=C(O)c1ccc2ccccc2c1O (stereo not drawn) [1-hydroxy-2-napthoate (Form A)] | 92.64 | Form A | 88.91 | Form A | 92.64 | Form A | 91.96 | Form A | – | – | – | – |
| COC[C@@]1(O)CC[C@@]2(C)[C@@H](CC[C@@H]3[C@@H]2CC[C@]2(C)[C@@H](C(=O)Cn4ccnc4)CC[C@@H]32)C1.O=C1O[C@H]([C@@H](O)CO)C(O)=C1O [Ascorbate (Form A)] | 96.4 | Form A | 95.7 | Form A | 96.8 | Form A | 96.8 | Form A | – | – | – | – |
| COC[C@@]1(O)CC[C@@]2(C)[C@@H](CC[C@@H]3[C@@H]2CC[C@]2(C)[C@@H](C(=O)Cn4ccnc4)CC[C@@H]32)C1.O=S(=O)(O)c1ccccc1 [Besylate (Form A)] | 98.3 | Form A | 98.3 | Form A | 98.7 | Form A | 98.4 | Form A | – | – | – | – |
| COC[C@@]1(O)CC[C@@]2(C)[C@@H](CC[C@@H]3[C@@H]2CC[C@]2(C)[C@@H](C(=O)Cn4ccnc4)CC[C@@H]32)C1 [Compound 1, 3α-Hydroxy-3β-methoxymethyl-21-(1′-imidazolyl)-5α-pregnan-20-one] | 98.2 and 99.1 and 98.23 | Pattern A | 98.2 and 99.3 and 98.15 | Pattern A | 97.9 and 99.2 and 97.92 | Pattern A | 98.3 and 99.1 | Pattern A | Pattern A | Pattern A | Pattern A | Pattern A |
| COCC1(O)CCC2(C)C(CCC3C2CCC2(C)C(C(=O)Cn4ccnc4)CCC32)C1.O=C(O)C(Cl)Cl (stereo not drawn) [Dichloroacetate (Form A)] | 98.0 | Form A | 96.3 | Form A | 96.4 | Form A | 97.3 | Form A | – | – | – | – |
| CCS(=O)(=O)O.COCC1(O)CCC2(C)C(CCC3C2CCC2(C)C(C(=O)Cn4ccnc4)CCC32)C1 (stereo not drawn) [Ethanesulfonate (Form A)] | 98.0 | Form A | 98.2 | Form A | 97.7 | Form A | 97.4 | Form A | – | – | – | – |
| COCC1(O)CCC2(C)C(CCC3C2CCC2(C)C(C(=O)Cn4ccnc4)CCC32)C1.O=C(O)c1cc(O)ccc1O (stereo not drawn) [Gentisate salt (Form A)] | 97.6 | Form A | 97.0 | Form A | 96.0 | Form A | 97.6 | Form A | – | – | – | – |
| COCC1(O)CCC2(C)C(CCC3C2CCC2(C)C(C(=O)Cn4ccnc4)CCC32)C1.O=CC(O)C(O)C(O)C(O)C(=O)O (stereo not drawn) [Glucuronate (Form A)] | 98.0 | Form A | 96.7 | Form A | 97.5 | Form A | 97.5 | Form A | – | – | – | – |
| COC[C@@]1(O)CC[C@@]2(C)[C@@H](CC[C@@H]3[C@@H]2CC[C@]2(C)[C@@H](C(=O)Cn4ccnc4)CC[C@@H]32)C1.Cl [Hydrochloride (Form A)] | 99.4 | Form A | 99.5 | Form A | 99.5 | Form A | 99.5 | Form A | – | – | – | – |
| COCC1(O)CCC2(C)C(CCC3C2CCC2(C)C(C(=O)Cn4ccnc4)CCC32)C1.Cl (stereo not drawn) [Hydrochloride (Form B)] | 100.0 | – | 100.0 | Form B | 98.2 | Form B | 98.59 | Form B | – | – | – | – |
| COCC1(O)CCC2(C)C(CCC3C2CCC2(C)C(C(=O)Cn4ccnc4)CCC32)C1.Cl (stereo not drawn) [Hydrochloride (Form C)] | 100.0 | Form C | 98.6 | Form C | 100.0 | Form C | 99.2 | Form C | – | – | – | – |
| COCC1(O)CCC2(C)C(CCC3C2CCC2(C)C(C(=O)Cn4ccnc4)CCC32)C1.O=S(=O)(O)CCO (stereo not drawn) [Isethionate (Form A)] | 98.5 | Form A | 98.7 | Form A | 98.9 | Form A | 98.8 | Form A | – | – | – | – |
| COCC1(O)CCC2(C)C(CCC3C2CCC2(C)C(C(=O)Cn4ccnc4)CCC32)C1.O=C(O)C(O)C(O)C(=O)O (stereo not drawn) [L(+)-Tartrate (Form A)] | 99.3 | Form A | 99.3 | Form A | 99.4 | Form A | 99.2 | Form A | – | – | – | – |
| COC[C@@]1(O)CC[C@@]2(C)[C@@H](CC[C@@H]3[C@@H]2CC[C@]2(C)[C@@H](C(=O)Cn4ccnc4)CC[C@@H]32)C1.O=C(O)C(O)C(O)C(=O)O [L(+)-Tartrate (Form B)] | 99.2 | Form B | 99.2 | Form B | 99.3 | Form B | 99.2 | Form B | – | – | – | – |
| COCC1(O)CCC2(C)C(CCC3C2CCC2(C)C(C(=O)Cn4ccnc4)CCC32)C1.O=C(O)CC(O)C(=O)O [L-Malate (Form A)] | 99.2 | Form A | 99.6 | Form A | 99.3 | Form A | 99.3 | Form A | – | – | – | – |
| COC[C@@]1(O)CC[C@@]2(C)[C@@H](CC[C@@H]3[C@@H]2CC[C@]2(C)[C@@H](C(=O)Cn4ccnc4)CC[C@@H]32)C1.O=C(O)C[C@H](O)C(=O)O [L-Malate (Form B)] | 98.5 | – | 97.8 | Form B | 97.6 | Form B | 97.5 | Form B | – | – | – | – |
| COC[C@@]1(O)CC[C@@]2(C)[C@@H](CC[C@@H]3[C@@H]2CC[C@]2(C)[C@@H](C(=O)Cn4ccnc4)CC[C@@H]32)C1.O=C(O)CC(=O)O [Malonate (Form A)] | 98.5 | Form A | 97.0 | Form A | 98.2 | Form A | 99.0 | Form A | – | – | – | – |
